Test results as given in US20130029391A1, “METHOD OF PREPARING KODA USING LEMNA PAUCICOSTATA” (priority 2010, published 2013).
Each block holds one molecule with its values, some of them ahead of it.

What was measured:
[1] = test system: Lemna paucicostata SH strain allene oxide synthase SHLpAOS, SEQ ID NO: 4; assay: kinetic analysis of SHLpAOS with 9-HPOT (A234 decrease, Hanes-Woolf plot); assay type: biochemical
Experimental: (§1) SHLpAOS obtained from Lemna paucicostata SH strain was subjected to kinetic analysis. […] The substrate 9-HPOT was tested at the substrate concentration of 5-53 μM. The substrate 9-HPOT was added as an EtOH solution, and the final concentration of EtOH was adjusted to 1%. 100 μl of the reaction mixture was added into a cuvette, and a decrease in absorbance at 234 nm was scanned over time for 1 minute at an interval of 2 seconds using the SmartSpec Plus Spectrophotometer (Bio-Rad). From the A234 determined, the amount of the reaction product was calculated (e=25,000). […] It is believed that compared to AtAOS, SHLpAOS is a very useful AOS in the practical production of KODA.

[2] = molecular target: rice germ position 9-specific lipoxygenase r9-LOX1 (Oryza sativa, UniProt Q76I22); settings: 40 mM phosphate buffer (pH 6.0), 0.1% Tween 80, 25° C; substrate 10-100 μM
Experimental: Using a reaction mixture comprising 40 mM phosphate buffer (pH 6.0) and 0.1% Tween 80, the analysis was carried out at a temperature of 25° C. […] The amount of the reaction product was calculated from the [MUT] determined (e=25,000). Kinetic parameters were determined using the Hanes-Woolf plot ([S]/v versus [S] plot).

[3] = test system: Lemna paucicostata SH strain position 9-product specific lipoxygenase SHLpLOX (LpLOX-SH), SEQ ID NO: 3; settings: 40 mM phosphate buffer (pH 6.0), 0.1% Tween 80, 25° C; substrate 10-100 μM
Experimental: The sequence of SHLpLOSX obtained was introduced into a vector (pET23d, Novagen) for protein expression, and then transformed into Escherichia coli (BL21(DE3), Novagen), so as to allow the expression of SHLpLOX protein. Using this SHLpLOX protein, the activity test in KODA production was carried out. […] Using a reaction mixture comprising 40 mM phosphate buffer (pH 6.0) and 0.1% Tween 80, the analysis was carried out at a temperature of 25° C. […] The amount of the reaction product was calculated from the […] determined (e=25,000). Kinetic parameters were determined using the Hanes-Woolf plot ([S]/v versus [S] plot).

[4] = Activity test in KODA production: AOS reacted with 9-HPOT reaction mixture, HPLC; assay type: biochemical; settings: 0.32 ng protein, 20 μl 9-HPOT reaction mixture, room temperature, 10 minutes; FIG. 5
Experimental: (§2) To 20 μl of this 9-HPOT reaction mixture, 0.32 ng of the SHLpAOS protein or A. thaliana-derived AOS (AtAOS) protein was added and reacted at room temperature for 10 minutes. After the reaction was over, the reaction was terminated by a heat treatment at 50° C. for 3 minutes. 10 μl of this solution was analyzed by HPLC. HPLC analysis was carried out with a column: Capcell pak C-18 UG120 (4.6×250 mm), and using mobile phase: 50% acetonitrile solution (0.02% TFA), flow rate: 1 ml/min, detection wavelength: 210 nm.

[5] = Kinetic analysis of AOS, decrease in absorbance at 234 nm, Hanes-Woolf plot; assay type: biochemical; settings: SHLpAOS versus AtAOS
Experimental: as §1

[6] = substrate: CC/C=C\C/C=C\C=C\[C@H](CCCCCCCC(=O)O)OO; assay: kinetic analysis of AtAOS with 9-HPOT (A234 decrease, Hanes-Woolf plot); assay type: biochemical, Arabidopsis thaliana; settings: other: 40 mM phosphate buffer (pH 7.5), 1% EtOH, 25° C, substrate 5-53 μM
Experimental: as §2, §1

[7] = Activity test in KODA production: HPLC of linolenic acid hydroperoxide formed by LOX; assay type: biochemical; settings: 5 mM linolenic acid solution, pH 7, room temperature, 30 minutes; FIG. 4
Experimental: HPLC analysis was carried out with a column: Capcell pak C-18 UG120 (4.6×250 mm, Shiseido), by using column temperature: 40° C., mobile phase: 50% acetonitrile solution (0.02% TFA), flow rate: 1 ml/min, detection wavelength: 210 nm.

[8] = Kinetic analysis of 9-LOX, absorbance at 234 nm, Hanes-Woolf plot; assay type: biochemical; settings: SHLpLOX versus r9-LOX1
Experimental: The substrate α-linolenic acid was tested at the substrate concentration of 10-100 μM. 100 μl of the reaction mixture was added into a cuvette, and absorbance at 234 nm was scanned over time for 10 minutes at an interval of 15 seconds using the SmartSpec Plus Spectrophotometer (Bio-Rad).

[9] = 40 mM phosphate buffer (pH 7.5), 1% EtOH, 25° C, substrate 5-53 μM
[10] = higher in SHLpAOS than in AtAOS

rice germ position 9-specific lipoxygenase r9-LOX1, sequence (Q76I22 whole entry): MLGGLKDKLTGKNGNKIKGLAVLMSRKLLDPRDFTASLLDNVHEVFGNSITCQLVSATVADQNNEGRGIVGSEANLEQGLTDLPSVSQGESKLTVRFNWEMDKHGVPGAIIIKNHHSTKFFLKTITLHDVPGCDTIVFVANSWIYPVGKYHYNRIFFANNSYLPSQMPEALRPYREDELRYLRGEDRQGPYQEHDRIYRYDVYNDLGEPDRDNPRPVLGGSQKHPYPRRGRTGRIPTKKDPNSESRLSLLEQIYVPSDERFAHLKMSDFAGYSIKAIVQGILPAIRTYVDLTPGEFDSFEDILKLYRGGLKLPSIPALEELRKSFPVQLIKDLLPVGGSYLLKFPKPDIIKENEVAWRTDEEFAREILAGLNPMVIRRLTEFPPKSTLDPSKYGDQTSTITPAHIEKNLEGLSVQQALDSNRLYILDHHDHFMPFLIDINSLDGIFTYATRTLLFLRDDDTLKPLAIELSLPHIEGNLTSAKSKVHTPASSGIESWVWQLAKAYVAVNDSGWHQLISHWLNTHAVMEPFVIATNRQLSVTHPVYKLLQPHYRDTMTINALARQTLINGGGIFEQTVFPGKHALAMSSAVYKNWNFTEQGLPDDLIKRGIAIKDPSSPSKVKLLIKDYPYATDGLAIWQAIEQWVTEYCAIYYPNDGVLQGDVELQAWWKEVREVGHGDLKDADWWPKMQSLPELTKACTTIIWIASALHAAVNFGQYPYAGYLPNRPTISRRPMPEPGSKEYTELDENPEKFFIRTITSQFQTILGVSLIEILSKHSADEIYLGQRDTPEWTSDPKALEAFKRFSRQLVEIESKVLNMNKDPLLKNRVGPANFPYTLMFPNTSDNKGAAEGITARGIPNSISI

Km [1, 9]: 7.1 ± 1.9 µM
Molecule: CC/C=C\C/C=C\C=C\[C@H](CCCCCCCC(=O)O)OO [9-HPOT, 9-hydroperoxylinolenic acid]
Vmax [1, 9]: 4.7 ± 0.3 µmol/s
kcat [1, 9]: 709.2 ± 44.3 s⁻¹
Kcat, SHLpAOS relative to AtAOS [1, 10]: about 2.8 fold
Vmax, SHLpAOS relative to AtAOS [1, 10]: about 2.8 fold

Km [2]: 22.9 ± 1.6 µM
Vmax [2]: 2.8 ± 0.6 µmol/min
kcat [2]: 10.24 ± 2.077 s⁻¹
Km [3]: 19.2 ± 4.1 µM
Vmax [3]: 3.0 ± 0.1 µmol/min
kcat [3]: 12.8 ± 0.538 s⁻¹
Molecule: CC/C=C\C/C=C\C/C=C\CCCCCCCC(=O)O [α-linolenic acid, cis-9,12,15-octadecatrienoic acid]

B1: SHLpAOS: allene oxide synthase derived from Lemna paucicostata SH strain (SEQ ID NO: 4), expressed in Escherichia coli; printed as LpLOX-SH in Table 2 (protein, listed as Lemna paucicostata)
chain: MSVSQSDDKAALVPQKTIPGSYGIPFITPLKDRLDFFSNEYQFFQSRVESYGSTIVRLNAPPGPFMAKNPQVIAILDGKSFPVLFDTSKVEKKNIFTGTYMPSTALTGGYRVCAYLDPSEPNHTKIKQLLLNILFNRKDHVIPEFHRAYEKLFDDMDAEIAKSGKFVFNDHNDGAAFEFLGRLFFGVSPSETELGAGGVKDANLWLFSQLCPLMTLGFLPKLLEDLLLHTFPLPPFLFKGKYQAIYKYISSVATDALTMAENLGLSREEAAHNLLFAVCFNSLGGVKVLFPGILRYIAQAGKNLQASLVSEVRSAVSSTGGELTIEALEKMPLTKSVVYESLRLDPPVKYQYGVVKKDMVIESHDRSYEVKAGETLFGYQPFATRDKKIFGPDADNFVAERFIGEEGAKVLRFVVWSNGPETTDPTPVDKQCPGKNLVVLISRLLVAEFFLRYDFFDAEIGAVPLAVKTTITSLTKATTR
AOS activity relative to AtAOS protein [4]: ~7 fold
affinity for 9-HPOT (Km) relative to AtAOS [5]: about 5 fold
kcat/Km value relative to AtAOS [5]: about 14 fold

B2: Arabidopsis thaliana allene oxide synthase AtAOS (Arabidopsis thaliana) (protein)
chain: SGSETPDLTVATRTGSKDLPIRNIPGNYGLPIVGPIKDRWDYFYDQGAEEFFKSRIRKYNSTVYRVNMPPGAFIAENPQVVALLDGKSFPVLFDVDKVEKKDLFTGTYMPSTELTGGYRILSYLDPSEPKHEKLKNLLFFLLKSSRNRIFPEFQATYSELFDSLEKELSLKGKADFGGSSDGTAFNFLARAFYGTNPADTKLKADAPGLITKWVLFNLHPLLSIGLPRVIEEPLIHTFSLPPALVKSDYQRLYEFFLESAGEILVEADKLGISREEATHNLLFATCFNTWGGMKILFPNMVKRIGRAGHQVHNRLAEEIRSVIKSNGGELTMGAIEKMELTKSVVYECLRFEPPVTAQYGRAKKDLVIESHDAAFKVKAGEMLYGYQPLATRDPKIFDRADEFVPERFVGEEGEKLLRHVLWSNGPETETPTVGNKQCAGKDFVVLVARLFVIEIFRRYDSFDIEVGTSPLGSSVNFSSLRKASF
Km [6]: 36.3 ± 1.3 µM
Vmax [6]: 102 µmol/min
kcat [6]: 256 ± 4.8 s⁻¹
kcat/Km [6]: 7e+06 ± 3.8e+06 M⁻¹ s⁻¹

B3: SHLpLOX: position 9-product specific lipoxygenase derived from Lemna paucicostata SH strain (SEQ ID NO: 3), expressed in Escherichia coli (protein, listed as Lemna paucicostata)
chain: MAGFLQKVTDNLLHKAAKISGTVVLVKSNVVGFNDFADSFLDGLHELLGSGITFQLVSATVGDPKNGNKGKLGKPALLEKWITTGTFLAAGDSGFKVNFEWDEQLGVPGAVIVKNNHHGEFFLKSLTLDGAPGPRSRIHFDCNSWVYPYSTYNYDRVFFANDTYLPGEMPEPLKAYRAAELVNLRGDGVTRELKEGDRIYAYDLYNDLGDPDSGKELARPILGGSEEYPYPRRARTGRKLTKTDPKSEQRLPLVFSLNVYVPRDERFGHLKMSDFLAYSLKALAQGLVPALDAATDITPFEFDTFQDVLNLYEGGINLPTTPALENFKKQIPFPLVKELFRSDGENLFRLPTPSVIKADKFAWRTDEEFGREMLAGVNPVCIRLLKKFPPVSSLDPSIYRNQNSTMIADQLEKNMNGLSVEEALKQKKLFILDHHDSLMPYLERINTFNKIYASRTVLLLQDDGTLKPLAIELSLPVKGEKGAVSKVYTPAEHGVEGAVWQLAKAYVAVNDSGVHQLISHWLNTHATIEPFSIALNRQLSVVHPIYKLLHPHFRDTMNINAFARQILINAGGILEMTVFPGKYAMEMSSVVYKGWKLTDQALPVDLLNRGVAEKDPSSGELRLLIEDYPYAVDGLDVWNAIEEWVKEYCAIYYPSDKTLQDDTEVQAWWKEVREVGHGDKKDETWWPAMETVAELTQTCSTIIWVASALHAAVNFAQYPYAGYLPNRPTISRRFMPEPGTPEYEELETDPDRAFLKTITSQLQTLIGVSLIEILSRHSSDEIYLGQRVSAEWTSDAKALAAFKAFGEKLITIENKIIEMNVDSSLKNRNGPVKVPYTFLYPNTTDYTRVGGLTGRGIPNSISI
LOX activity (linolenic acid hydroperoxide formed) compared with r9-LOX1 [7]: much higher activity than r9-LOX1
kcat/Km value relative to r9-LOX1 [8]: about 1.6 fold
